Test results from patent US6696486B1, “Medical use for atypical β-adrenoceptor agonists” (Glaxo Group Limited, priority 1992, dated 2004).

Columns and labels:
[1] = system: indomethacin-induced antral damage; test: indomethacin-induced gastric antral lesions in the re-fed rat (Method 2); format: in vivo; conditions: for % Protection: single dose 30 minutes before indomethacin (60 mg/kg s.c.)
Description: An experimental model in which atypical beta-adrenoceptor agonists may be shown to be of use in the treatment of gastrointestinal disorders is described below as Method 2. The procedure is based upon that described by H. Satoh et. al., Gastroenterology, 81, 719-725 (1981) in which the effect of compounds on indomethacin-induced gastric antral lesions in the re-fed rat is investigated. Indomethacin is an example of the class of compound known as non-steroidal anti-inflammatory drugs (NSAIDs), the use of which is frequently associated with gastrointestinal ulcers.
Food (but not water) is withheld from female random hooded rats (70-120 g) for 24 hours and then the rats are re-fed with Rat and Mouse No. 1 Maintenance Diet. After 1 hour of access to food, the rats are dosed orally with either the test compound or solvent (0.5% w/v methyl cellulose in water). 30 minutes later, indomethacin (60 mg/kg; dissolved in 1% w/v NaHCO3 in saline) is administered as a single subcutaneous injection at the back of the neck. Subsequently, the rats are allowed food, but water is withheld, and the animals are humanely killed by cervical dislocation at 6 hours post dose. Control animals received a single subcutaneous dose of the appropriate solvent.
The rat's stomach is removed (with a small amount of duodenum attached), opened along the greater curvature and the contents removed by washing with 0.9% w/v sodium chloride solution (saline). The opened stomach is pinned out (mucosal surface uppermost) on a polystyrene mat and the area of damage assessed by placing a grid (composed of 1 mm squares) over the antral region. Antral damage appears as discrete black or dark brown ulcers. The total area of antral damage is then expressed as a percentage of the total surface area of the antrum.
The protective effect of the test compound on indomethacin-induced antral damage is calculated as a percentage using the following equation: [formula]

[2] = system: indomethacin-induced ulceration of the small intestine; test: indomethacin-induced ulceration of the small intestine in the rat (Method 3); format: in vivo; conditions: single dose 30 minutes before indomethacin (15 mg/kg p.o.)
Protocol: Another experimental model in which atypical beta-adrenocopter agonists may be shown to be of use in the treatment of gastrointestinal disorders is described below as Method 3. This is a model of indomethacin-induced ulceration of the small intestine in the rat.
Female random hooded rats (100-150 g) are allowed free access to food and water. The rats are dosed orally with either the test compound (1 ml per 100 g of an appropriated dose) or solvent (0.5% w/v methyl cellulose in water). 30 minutes later, indomethacin (15 mg/kg) is administered orally using a dose volume of 1 ml per 100 g of a 1.5 mg/ml solution of indomethacin in 1% w/v NaHCO3. The animals are humanely killed by cervical dislocation at 48 hours post dose.
The rat's small intestine is removed, opened along its length and the contents removed by washing with 0.9% w/v sodium chloride solution (saline). The opened small intestine is pinned out (mucosal surface uppermost) on a polystyrene mat and the area of damage assessed by placing a grid (composed of 1 mm squares) over the preparation. The number of visible ulcers (appearing as discrete black or brown lesions) running the length of the small intestine is counted. The protective effect of the test compound is calculated as a percentage using the following equation: [formula]

[3] = system: piroxicam-induced antral damage; format: in vivo, rat
[4] = inhibition of indomethacin-induced antral ulceration in rat
[5] = 0.5 mg/kg p.o., single dose 30 minutes before NSAID

**Q.** How did the “Maximum Inhibition (dose; mg/kg p.o.)” value ([1]; dose 3 mg/kg p.o.) turn out when `COC(=O)COc1ccc(C[C@@H](C)NC[C@H](O)c2cccc(Cl)c2)cc1` [(R,R)-N-[2-(4-carbomethoxymethoxyphenyl)-1-methylethyl]-2-hydroxy-2-(3-chlorophenyl)ethanamine] was run?
**A.** 100% (3)

**Q.** And the ED50 [1, 4]?
**A.** 0.02 mg/kg p.o.

**Q.** For `C[C@H](Cc1ccc(OCC(=O)O)cc1)NC[C@H](O)c1cccc(Cl)c1` [(R,R)-N-[2-(4-carboxymethoxyphenyl)-1-methylethyl]-2-hydroxy-2-(3-chlorophenyl)ethanamine], which “Maximum Inhibition (dose; mg/kg p.o.)” value ([1]; dose 3 mg/kg p.o.) is on record?
**A.** 100% (3)

**Q.** And the ED50 [1, 4]?
**A.** 0.03 mg/kg p.o.

**Q.** Which “Maximum Inhibition (dose; mg/kg p.o.)” value ([1]; dose 1 mg/kg p.o.) does the source give for `C[C@H](Cc1ccc2c(c1)OC(C(=O)O)(C(=O)O)O2)NC[C@@H](O)c1cccc(Cl)c1` [(R,S)-5-(2-((2-(3-chlorophenyl)-2-hydroxyethyl)amino)propyl)-1,3-benzodioxole-2,2-dicarboxylic acid] here?
**A.** 64% (1)

**Q.** What about the ED50 [1, 4] of the same compound?
**A.** 0.6 mg/kg p.o.

**Q.** What does the source list for `COC(=O)COc1ccc(C[C@H](C)NC[C@H](O)c2cccc(Cl)c2)cc1` [(R,S)-N-[2-(4-carbomethoxymethoxyphenyl)-1-methylethyl]-2-hydroxy-2-(3-chlorophenyl)ethanamine]?
**A.** Maximum Inhibition (dose; mg/kg p.o.) ([1]; dose 3 mg/kg p.o.): 93% (3); ED50 [1, 4]: 0.2 mg/kg p.o.

**Q.** How did the “Maximum Inhibition (dose; mg/kg p.o.)” value ([1]; dose 3 mg/kg p.o.) turn out when `C[C@@H](Cc1ccc(OCC(=O)O)cc1)NC[C@H](O)c1cccc(Cl)c1` [(R,S)-N-[2-(4-carboxymethoxyphenyl)-1-methylethyl]-2-hydroxy-2-(3-chlorophenyl)ethanamine] was run?
**A.** 77% (3)

**Q.** What about the ED50 [1, 4] of the same compound?
**A.** 0.3 mg/kg p.o.

**Q.** What does the source list for `COC(=O)COc1ccc(C[C@@H](C)NC[C@@H](O)c2cccc(Cl)c2)cc1` [(S,R)-N-[2-(4-carbomethoxymethoxyphenyl)-1-methylethyl]-2-hydroxy-2-(3-chlorophenyl)ethanamine]?
**A.** Maximum Inhibition (dose; mg/kg p.o.) ([1]; dose 3 mg/kg p.o.): 88% (3); ED50 [1, 4]: 0.5 mg/kg p.o.

**Q.** How did the “Maximum Inhibition (dose; mg/kg p.o.)” value ([1]; dose 3 mg/kg p.o.) turn out when `C[C@@H](Cc1ccc(OCC(=O)O)cc1)NC[C@@H](O)c1cccc(Cl)c1` [(S,S)-N-[2-(4-carboxymethoxyphenyl)-1-methylethyl]-2-hydroxy-2-(3-chlorophenyl)ethanamine] was run?
**A.** 97% (3)

**Q.** What about the ED50 [1, 4] of the same compound?
**A.** 0.8 mg/kg p.o.

**Q.** Which results are given for `COC(=O)COc1ccc(CC(C)NCC(O)c2cccc(Cl)c2)cc1` (stereo not shown) [BRL 35135, N-[2-(4-carbomethoxymethoxyphenyl)-1-methylethyl]-2-hydroxy-2-(3-chlorophenyl)ethanamine]?
**A.** % Protection ([1]; 20 μg/kg p.o.): 40%; % Protection ([1]; 50 μg/kg p.o.): 48%; % Protection ([1]; 100 μg/kg p.o.): 88%; % Protection ([1]; 500 μg/kg p.o.): 97%; ED50 ([1]; gastro-protection against indomethacin-induced antral damage, rat): approximately 50 μg/kg p.o.; % inhibition ([2]; 0.05 mg/kg p.o.): 24 ± 15%; % inhibition ([2]; 0.1 mg/kg p.o.): 35 ± 7%; % inhibition ([2]; 0.5 mg/kg p.o.): 76 ± 3%; % inhibition ([2]; 2.5 mg/kg p.o.): 85 ± 3%; % inhibition ([2]; 10 mg/kg p.o.): 80 ± 3%

**Q.** With `C[C@H](Cc1ccc2c(c1)OC(C(=O)O)(C(=O)O)O2)NC[C@H](O)c1cccc(Cl)c1` [CL 316243, (R,R)-5-(2-((2-(3-chlorophenyl)-2-hydroxyethyl)amino)propyl)-1,3-benzodioxole-2,2-dicarboxylic acid] as the compound, how does the “% inhibition of indomethacin-induced damage” value [1, 5] read?
**A.** 83%

**Q.** And the “Maximum Inhibition (dose; mg/kg p.o.)” value ([1]; dose 1 mg/kg p.o.)?
**A.** 96% (1)

**Q.** What about the ED50 [1, 4] of the same compound?
**A.** 0.03 mg/kg p.o.

**Q.** And the “% inhibition of piroxicam-induced damage” value [3, 5]?
**A.** 96%

**Q.** And the “% inhibition” value ([2]; 10 mg/kg p.o.)?
**A.** 93 ± 4%

**Q.** `COc1ccc2c(c1)c(CC(=O)O)c(C)n2C(=O)c1ccc(Cl)cc1` [indomethacin, reference compound] was tested. Which “percentage area of damage (antral)” value ([1]; subcutaneous dose of 60 mg/kg, rat) did it give?
**A.** 19±5%

**Q.** For `CN1C(C(=O)Nc2ccccn2)=C(O)c2ccccc2S1(=O)=O` [piroxicam, reference compound], which “percentage area of antral damage” value ([3]; female, random hooded, rat, in vivo, sc, 60 mg/kg, 6 h) is on record?
**A.** 21±3%
